Assay [1] deals with ICA512-TMF. In words: Stimulus-induced cleavage of ICA512-TMF in INS-1 cells (western blot). It counts as cell-based, rat. The method, then: Cell extracts and western blotting. Wild type and transfected INS-1 cells and rat pancreatic islets (350-450) were pre-incubated for 60 minutes in resting buffer containing 0 mM glucose and 5 mM KCl and then incubated for various times in fresh resting or stimulating buffer including 25 mM glucose and 55 mM KCl, as previously described (7). […] Next, the cells were washed with ice cold PBS, and extracted in lysis buffer (10 mM Tris-HCl at pH 8.0, 140 mM NaCl, 1% Triton X-100, 1 mM EDTA, 1 mM PMSF, and 1% protease inhibitor cocktail (Sigma, St. Louis, Mo.) at 4° C. Cytosolic and nuclear extracts were prepared using the NE-PER Nuclear and Cytoplasmic Extraction Reagents (Pierce, Rockford, Ill.) in accordance with the manufacturer's instructions. Protein concentration was measured using the Bio-Rad Protein Assay Reagent (Bio-Rad, Hercules, Calif.). Equivalent amount of protein was separated by 8-10% SDS-PAGE, except for nuclear extracts, in which case half of the protein were loaded compared to the corresponding cytosolic extracts. After protein transferring, nitrocellulose filters were incubated with the following antibodies: mouse monoclonal anti-ICA512 (6), anti-μ-calpain (Chemicon, Temecula, Calif.), anti-γ-tubulin and anti-HA (Sigma), anti-GFP (Clontech); rabbit polyclonals anti-Glut2 (Alpha Diagnostics International, St Antonio, Tex.), anti-CPE (Chemicon), anti-GFP (Molecular Probes, Eugene, Oreg.) and anti-HA (kind gift of Christoph Thiele). Chemiluminescence was developed using the Supersignal West Pico Substrate (Pierce) as substrate and detected with a LAS 3000 Bioimaging System (Fuji, Tokyo, Japan). Quantitation of protein signals was performed with the Image Gauge v3.45 software (Fuji).

For assay [2], the target named is T1, μ-calpain (Homo sapiens, UniProt P07384).
T1 sequence (P07384 1-714): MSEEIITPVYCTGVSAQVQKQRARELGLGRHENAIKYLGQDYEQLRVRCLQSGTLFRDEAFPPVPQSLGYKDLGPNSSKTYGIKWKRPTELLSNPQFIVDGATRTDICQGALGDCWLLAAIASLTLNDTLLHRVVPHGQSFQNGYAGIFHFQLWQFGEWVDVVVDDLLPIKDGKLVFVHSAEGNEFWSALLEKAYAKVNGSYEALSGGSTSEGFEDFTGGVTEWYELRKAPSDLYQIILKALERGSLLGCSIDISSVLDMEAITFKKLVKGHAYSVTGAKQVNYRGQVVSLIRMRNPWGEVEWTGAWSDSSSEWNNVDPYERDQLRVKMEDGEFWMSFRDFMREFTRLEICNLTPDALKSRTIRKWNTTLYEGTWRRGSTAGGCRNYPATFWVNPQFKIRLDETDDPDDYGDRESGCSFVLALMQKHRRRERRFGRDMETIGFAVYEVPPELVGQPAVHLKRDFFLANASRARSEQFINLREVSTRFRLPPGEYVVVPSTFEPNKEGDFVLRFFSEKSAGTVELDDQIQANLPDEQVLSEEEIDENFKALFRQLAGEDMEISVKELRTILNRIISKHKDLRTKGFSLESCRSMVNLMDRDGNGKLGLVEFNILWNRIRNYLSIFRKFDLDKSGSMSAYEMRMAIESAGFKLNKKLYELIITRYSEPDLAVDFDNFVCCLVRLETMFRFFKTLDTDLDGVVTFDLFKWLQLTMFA
T1 sequence (P04632 1-268 partner): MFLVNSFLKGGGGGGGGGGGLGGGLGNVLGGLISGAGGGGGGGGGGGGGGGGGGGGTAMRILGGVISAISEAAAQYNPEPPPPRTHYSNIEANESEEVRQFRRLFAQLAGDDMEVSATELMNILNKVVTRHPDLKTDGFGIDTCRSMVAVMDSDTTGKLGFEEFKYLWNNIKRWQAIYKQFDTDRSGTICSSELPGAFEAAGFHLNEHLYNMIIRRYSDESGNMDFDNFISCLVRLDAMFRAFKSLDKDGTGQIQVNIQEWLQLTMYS
It is filed as biochemical. The settings on record: bacterially expressed ICA512 (601-979), 50 μM Ca2+, 30 μM inhibitor. Here is the method:
In-vitro μ-calpain cleavage. 3 μg bacterially expressed His-ICA512 cytoplasmic domain (residues 601-979) (Ort et al., 2001) were incubated in 20 μl buffer (20 mM Tris-HCl pH 7.5, 50 μM CaCl2, 1 mM L-cysteine) at room temperature with or without 150 ng μ-calpain (Calbiochem) and 30 μM calpeptin or MG-132 for 1, 5, 15 or 45 minutes. The reactions were stopped by addition of an equal volume of 2×SDS sample buffer. Following SDS-PAGE, proteins were stained with Coomassie Blue (Bio-Rad).

The test system of assay [3] is pro-ICA512. The assay is described as follows: Immunoblot for pro-ICA512 and ICA512-TMF in INS-1 cells. It is filed as cell-based, rat. The conditions noted are these: 60 μM Calpeptin. Here is the method:
Culture of INS-1 cells. INS-1 cells were grown as described^27. In some instances cells were pre-incubated for 1 hour in resting buffer (0 mM glucose, 5 mM KCl) and then for 2 or 6 hours in resting or stimulating (25 mM glucose, 55 mM KCl) buffers as described^7. Calpeptin (Calbiochem) was added in the last 15 minutes of the pre-incubation, and then for the entire following period before cells were harvested. Cells were stimulated with 20 nM human growth hormone (hGH) for 20 minutes following 18 hours incubation in low serum medium (LSM) containing RPMI-1640, 11 mM glucose, 0.5% FBS 25 mM HEPES, 1% penicillin-streptomycin and 0.05 mM β-mercaptoethanol. After washing, cells were either harvested or incubated in LSM for 6 additional hours. For immunoprecipitation cells were collected 1 hour after stimulation with hGH.
Cell extracts and western blotting. INS-1 cells and pancreatic islets were harvested at 4° C. in RIPA buffer [50 mM Tris-HCl at pH 8.0, 150 mM NaCl, 1% NP-40, 0.1% SDS, 0.5% sodium deoxycholate, and 1× protease inhibitor cocktail (Sigma)] to obtain total extracts. Insoluble material was removed by centrifugation. Cytosolic and nuclear extracts were prepared using the NE-PER Nuclear and Cytoplasmic Extraction Reagents (Pierce). Proteins were separated by 8-10% SDS-PAGE and immunoblotted with the following antibodies: mouse monoclonals anti-ICA512^7, anti-STAT5 (Santa Cruz), anti-γ-tubulin and anti-HA (Sigma); rabbit anti-PY-STAT5 and anti-STAT3 (Cell Signaling); affinity purified goat anti-GFP IgGs. Chemiluminescence was developed using the Supersignal West Pico or Femto kits (Pierce) and detected with a LAS 3000 Bioimaging System (Fuji). Protein signals were quantified with the Image Gauge v3.45 software (Fuji). Half the amount of nuclear extract proteins were immunoblotted relative to total and cytosolic extract proteins.

As for `CCCC[C@@H](C=O)NC(=O)[C@H](CC(C)C)NC(=O)OCc1ccccc1` [calpeptin], the “Ca2+-dependent cleavage of ICA512-TMF cytoplasmic domain upon stimulation” value in assay [1] (INS-1 cells, stimulating buffer (25 mM glucose, 55 mM KCl) 105 min, western blot) is given as “prevented in a dose-dependent manner”. In assay [1] (cytosolic extracts of ICA512-GFP INS-1 cells, 60 μM calpeptin), the “stimulation induced proteolysis of ICA512-TMF-GFP” value is “calpeptin-sensitive proteolysis of ICA512-TMF-GFP”. Besides, the “increased proteolysis of ICA512-TMF in dynamin 1 (K44A)-GFP cells” value in assay [1] (stimulated INS-1 cells expressing dynamin 1 (K44A)-GFP) is reported as “inhibited by calpeptin in a dose-dependent fashion”. The “Cleavage by μ-calpain” value in assay [2] was “inhibited”. Also, in assay [3] (cells stimulated for 2 hours), the “rapid induction of pro-ICA512” value is reported as “did not prevent the rapid induction of pro-ICA512”. Moreover, the “greater induction of pro-ICA512 and decrease of ICA512-TMF” value in assay [3] (cells stimulated for 6 hours) is “partially inhibited”.

(Values after US20090131309A1, “ICA512 COUPLES INSULIN SECRETION AND GENE EXPRESSION IN BETA-CELLS” (Technische Universität Dresden Medizinizche Fakultät Carl …, priority 2004, published 2009).)
